# Reference: patent publication US11149253B2, “Small molecule compound combination for reprogramming digestive tract derived epithelial cells to endodermal stem/progenitor cells, reprogramming method and application” (INSTITUE OF TRANSFUSION MEDICINE, ACADEMY OF MILITARY …, priority 2016, dated 2021)
# Test system: human gastric epithelial cells (hGECs)
# Assay: Reprogramming of human gastric epithelial cells (hGECs) to induced endodermal progenitor cells (hiEndoPCs); clonal formation efficiency
# Type: cell-based
# Conditions: SB431542 as basis; aGSEMFs supporting cells
# Procedure: 1. Proliferation of the initiating cells: Primary isolated human gastric epithelial cells (hGECs) or duodenal epithelial cells (hDECs) were used as initiating cells, and cultured in Kubta medium (prepared according to the literature, literature source: Kubota, H., and Reid, L. M. (2000). Clonogenic hepatoblasts, common precursors for hepatocytic and biliary lineages, are lacking classical major histocompatibility complex class I antigen. Proc. Natl. Acad. Sci. USA 97, 12132-12137) at 37° C. in a 5% CO2 incubator for 4-5 days, and the initiating cells were expanded.
# 2. Preparation of trophoblast cells: adult human gastric subepithelial myofibroblasts (aGSEMFs, the cells were obtained by separation of gastric tissue matrix layers, frozen in large quantities after culture and proliferation, and resuscitated in advance when necessary) as trophoblast cells were treated with mitomycin-C (10 μg/mL, for the purpose of losing mitosis of trophoblast cells) for 2-3 hours, washed with PBS for 3-4 times, the cells were digested by TrypLE enzyme, and then the cells were washed;
# 3. When human gastric epithelial cells (hGECs) or duodenal epithelial cells (hDECs) were cultured until day 5-6, the treated gastric subepithelial myofibroblasts were added at a suitable density (generally, density of 1-3×10^5 per square centimeter) to human gastric epithelial cells (hGECs) or duodenal epithelial cells (hDECs) being cultured, and placed at 37° C. in a 5% CO2 incubator overnight (12-16 hours);
# 4. Reprogramming culture: on the second day after the addition of gastric subepithelial myofibroblasts, the medium was changed to 8M reprogramming medium, and changed every 2-3 days, and continuous observation was performed. Generally, induced endodermal progenitor cells (hiEndoPCs) were obtained after culturing for 1 week or 2 weeks more (7-15 days).
# 1. Calculation of the total number of clones.
# 2. Calculation of the area of different clones using the microscope graticule: the area of each microscope microlattice was 0.0625 mm^2, and the number of lattices occupied by the clone multiplied by 0.0625 mm^2 was the area of each clone.
# 3. The evaluation of the efficiency of reprogramming is proformed by colligating number of clones and the area of the clones.
# Since the clonal morphology produced on day 15 of reprogramming was most typical (FIGS. 8E and 8F), colony formation efficiency was usually calculated at this time point. However, the growth rate of clones was faster from day 7 to day 15, and many clones were fused together to form a large clone upon the time point for calculation (FIG. 8B), so the number of clones was less upon calculation, but the total area was increasing. In order to reflect the reprogramming effect more objectively, the present experiment colligated the total number of clones and the number of clones and clone area under different areas, as the calculation method of reprogramming efficiency. Calculation of the area of different clones using the microscope graticule: the area of each microscope microlattice was 0.0625 mm^2, and the number of lattices occupied by the clone multiplied by 0.0625 mm^2 was the area of each clone. The calculation method for different sizes of cloned areas was shown in FIG. 9, and the calculation results were shown in Table 4.
# 1) The trophoblast cells screened in the second part were used as the supporting cells, and the small molecules were removed one by one based on the culture conditions for above-mentioned 8 small molecule compounds (8M), and the indispensable small molecules were first screened.
# 2) Based on the small molecule compound combinations screened in the step 1), the small molecule compounds were successively removed one by one so that the best small molecule compound combination (with highest reprogramming efficiency) and the combination with fewest small molecule compounds (guaranteed for the formation of the clone) were finally found. […]
Compound,clonal formation efficiency compared with BBRS,clone formation with the fewest small molecules
NC(=O)c1ccc(-c2nc(-c3ccc4c(c3)OCO4)c(-c3ccccn3)[nH]2)cc1 [SB431542],not as good as the optimal combination of BBRS,capable for forming the clones

# Same assay, conditions: removed one by one from 8 small molecule compounds (8M); aGSEMFs supporting cells; day 15
row,Compound,clonal formation efficiency when the compound was removed from 8M
1,COC(=O)C1=C(C)NC(C)=C([N+](=O)[O-])C1c1ccccc1C(F)(F)F (stereo not shown) [Bay K 8644],obviously decreased
2,COc1cc2nc(N3CCCN(C)CC3)nc(NC3CCN(Cc4ccccc4)CC3)c2cc1OC [Bix01294],obviously decreased
3,O=C(NOC[C@H](O)CO)c1ccc(F)c(F)c1Nc1ccc(I)cc1F [PD0325901],increased
4,O=C(O)/C=C(/CCc1ccc(Cl)cc1)c1ccccc1 [PS48],increased
5,O=C(O)C(Cc1c[nH]c2ccccc12)N1C(=O)c2ccccc2C1=O (stereo not shown) [RG108],obviously decreased
6,NC(=O)c1ccc(-c2nc(-c3ccc4c(c3)OCO4)c(-c3ccccn3)[nH]2)cc1 [SB431542],clones were not produced
7,"CCCC(CCC)C(=O)O [VPA, Valproic Acid]",did not change significantly
8,Fructose diphosphate [FBP],increased

# Same assay, conditions: removed one by one from BBRS combination; aGSEMFs supporting cells
row,Compound,clonal formation efficiency when the compound was removed from BBRS
1,COC(=O)C1=C(C)NC(C)=C([N+](=O)[O-])C1c1ccccc1C(F)(F)F (stereo not shown) [Bay K 8644],significantly decreased
2,COc1cc2nc(N3CCCN(C)CC3)nc(NC3CCN(Cc4ccccc4)CC3)c2cc1OC [Bix01294],significantly decreased
3,O=C(O)C(Cc1c[nH]c2ccccc12)N1C(=O)c2ccccc2C1=O (stereo not shown) [RG108],significantly decreased
4,NC(=O)c1ccc(-c2nc(-c3ccc4c(c3)OCO4)c(-c3ccccn3)[nH]2)cc1 [SB431542],no clones were formed

# Test system: hiEndoPCs-Pans
# Assay: C-peptide release of hiEndoPC-derived pancreatic cells (ELISA)
# Type: cell-based, human
# Conditions: insulin secretion promoter stimulation of hiEndoPCs-Pans
# Procedure: 2. The adhered cells were induced to differentiate to the pancreas according to four stages.
# 2.1 MCDB 131 medium (purchased from Gibco)+1.5 g/L of sodium bicarbonate+2 mM (concentration) 2 mM of Glutamax (Glutamine)+10 mM of final glucose concentration (glucose)+2% of BSA (bovine serum albumin)+0.25 mM of ascorbic acid (vitamin C)+50 ng/mL of FGF7 (fibroblast growth factor 7)+0.25 μM of SANT-1+1 μM of retinoic acid (RA)+100 nM of LDN193189+1:200 ITS-X (insulin-Transferrin-selenium-ethanolamine complex solution)+200 nM TPB, cultured for 2 days.
# 2.2 MCDB 131 medium+1.5 g/L of sodium bicarbonate+2 mM of Glutamax+10 mM of final glucose concentration+2% of BSA+0.25 mM of ascorbic acid+2 ng/mL of FGF7+0.25 μM of SANT-1+0.1 μM of retinoic acid+200 nM of LDN193189+1:200 ITS-X+100 nM of TPB, cultured for 2 days. […]
# 13. The OD value was measured at a wavelength of 450 nm on a microplate reader within 30 minutes, and the results were calculated.
row,Compound,release of C peptide
1,[Cl-].[K+] [KCL],significantly increased
2,CCCCNC(=O)NS(=O)(=O)c1ccc(C)cc1 [Tolbutamiden],significantly increased
